# Reference: patent publication US20210236442A1, “METHODS FOR DELAYING OCCURRENCE OF NEW-ONSET TYPE 2 DIABETES AND FOR SLOWING PROGRESSION OF AND TREATING TYPE 2 DIABETES” (Dalcor Pharma UK Ltd., Leatherhead, Zug Branch, priority 2018, published 2021)
# What was measured:
# Type in all cases: in vivo, human
# [1] = system: patients of the dal-OUTCOMES trial; assay: GLM of dalcetrapib treatment arm for whole-blood HbA1c at 6, 12 and 24 months
# Protocol: The effect of dalcetrapib on whole-blood HbA1c levels irrespective of genotype and the impact of dalcetrapib on risk of new onset diabetes were retrospectively assessed in patients of the dal-OUTCOMES trial. The descriptive statistics and analyses were performed using SAS 9.4 software. Diabetes at baseline was defined based on at least one of the following patient criteria: (1) diagnosis of diabetics at baseline in the dal-OUTCOMES trial; (2) whole-blood HbA1c level>=6.5% at baseline; (3) fasting glucose level>=7.0 mmol/L at baseline; and (4) use of diabetes medication at or before baseline. GLM results of the dalcetrapib treatment arm for whole-blood HbA1c at 6,12, and 24 months (“M06”, “M12” and “M24”, respectively) were obtained.
# [2] = system: uncontrolled diabetic patients of the dal-OUTCOMES trial; assay: Effect of dalcetrapib on whole-blood HbA1c in uncontrolled diabetics
# Protocol: The effect of dalcetrapib in uncontrolled diabetics defined once as HbA1c>7% at baseline or once as >7.5% at baseline was retrospectively assessed in patients of the dal-OUTCOMES trial. The descriptive statistics and analyses were performed using SAS 9.4 software. Two populations of uncontrolled diabetics at baseline were defined: patients having a whole-blood HbA1c level of >7 (n=437) and patients having a whole-blood HbA1c level of >7.5 (n=280).
# [3] = system: patients of the dal-OUTCOMES trial; assay: Repeated measures mixed regression of treatment arm for HbA1c, all patients and per genotype (Example 2); conditions: all patients combined and each rs1967309 genotype; with and without covariates
# Protocol: The effect of dalcetrapib on whole-blood HbA1c levels irrespective of genotype and the impact of dalcetrapib on risk of new onset diabetes were retrospectively assessed in patients of the dal-OUTCOMES trial. The descriptive statistics and analyses were performed using SAS 9.4 software.
compound,measurement,setting,value
CCC(CC)CC1(C(=O)Nc2ccccc2SC(=O)C(C)C)CCCCC1 [dalcetrapib],"β dalcetrapib, Ln(HbA1c)","[1]; All, HBA1C_M06, Table 12, adjustment not stated",−0.0137
same,"β dalcetrapib, Ln(HbA1c)","[1]; All, HBA1C_M06, first block, adjusted for baseline HbA1c",−0.0143
same,"β dalcetrapib, Ln(HbA1c)","[1]; All, HBA1C_M12, Table 12, adjustment not stated",−0.0152
same,"β dalcetrapib, Ln(HbA1c)","[1]; All, HBA1C_M12, first block, adjusted for baseline HbA1c",−0.0160
same,"β dalcetrapib, Ln(HbA1c)","[1]; All, HBA1C_M24, Table 12, adjustment not stated",−0.0170
same,"β dalcetrapib, Ln(HbA1c)","[1]; All, HBA1C_M24, first block, adjusted for baseline HbA1c",−0.0176
same,association of dalcetrapib treatment arm with whole-blood HbA1c levels,"[1]; M06, M12, M24, all patients combined and each rs1967309 genotype, with and without age and sex",associated with decrease in whole-blood HbA1c levels
same,"β dalcetrapib, Ln(HbA1c)","[1]; genotype = AA, HBA1C_M06, Table 12, adjustment not stated",−0.0192
same,"β dalcetrapib, Ln(HbA1c)","[1]; genotype = AA, HBA1C_M06, first block, adjusted for baseline HbA1c",−0.0196
same,"β dalcetrapib, Ln(HbA1c)","[1]; genotype = AA, HBA1C_M12, Table 12, adjustment not stated",−0.0112
same,"β dalcetrapib, Ln(HbA1c)","[1]; genotype = AA, HBA1C_M12, first block, adjusted for baseline HbA1c",−0.0116
same,"β dalcetrapib, Ln(HbA1c)","[1]; genotype = AA, HBA1C_M24, Table 12, adjustment not stated",−0.0172
same,"β dalcetrapib, Ln(HbA1c)","[1]; genotype = AA, HBA1C_M24, first block, adjusted for baseline HbA1c",−0.0171
same,"β dalcetrapib, Ln(HbA1c)","[1]; genotype = AG, HBA1C_M06, Table 12, adjustment not stated",−0.0113
same,"β dalcetrapib, Ln(HbA1c)","[1]; genotype = AG, HBA1C_M06, first block, adjusted for baseline HbA1c",−0.0123
same,"β dalcetrapib, Ln(HbA1c)","[1]; genotype = AG, HBA1C_M12, Table 12, adjustment not stated",−0.0143
same,"β dalcetrapib, Ln(HbA1c)","[1]; genotype = AG, HBA1C_M12, first block, adjusted for baseline HbA1c",−0.0156
same,"β dalcetrapib, Ln(HbA1c)","[1]; genotype = AG, HBA1C_M24, Table 12, adjustment not stated",−0.0139
same,"β dalcetrapib, Ln(HbA1c)","[1]; genotype = AG, HBA1C_M24, first block, adjusted for baseline HbA1c",−0.0153
same,"β dalcetrapib, Ln(HbA1c)","[1]; genotype = GG, HBA1C_M06, Table 12, adjustment not stated",−0.0145
same,"β dalcetrapib, Ln(HbA1c)","[1]; genotype = GG, HBA1C_M06, first block, adjusted for baseline HbA1c",−0.0145
same,"β dalcetrapib, Ln(HbA1c)","[1]; genotype = GG, HBA1C_M12, Table 12, adjustment not stated",−0.0185
same,"β dalcetrapib, Ln(HbA1c)","[1]; genotype = GG, HBA1C_M12, first block, adjusted for baseline HbA1c",−0.0186
same,"β dalcetrapib, Ln(HbA1c)","[1]; genotype = GG, HBA1C_M24, Table 12, adjustment not stated",−0.0214
same,"β dalcetrapib, Ln(HbA1c)","[1]; genotype = GG, HBA1C_M24, first block, adjusted for baseline HbA1c",−0.0210
same,"β dalcetrapib, Ln(HbA1c)","[1]; genotype_group = AA + AG, HBA1C_M06, Table 12, adjustment not stated",−0.0133
same,"β dalcetrapib, Ln(HbA1c)","[1]; genotype_group = AA + AG, HBA1C_M06, first block, adjusted for baseline HbA1c",−0.0141
same,"β dalcetrapib, Ln(HbA1c)","[1]; genotype_group = AA + AG, HBA1C_M12, Table 12, adjustment not stated",−0.0135
same,"β dalcetrapib, Ln(HbA1c)","[1]; genotype_group = AA + AG, HBA1C_M12, first block, adjusted for baseline HbA1c",−0.0146
same,"β dalcetrapib, Ln(HbA1c)","[1]; genotype_group = AA + AG, HBA1C_M24, Table 12, adjustment not stated",−0.0147
same,"β dalcetrapib, Ln(HbA1c)","[1]; genotype_group = AA + AG, HBA1C_M24, first block, adjusted for baseline HbA1c",−0.0157
same,"β dalcetrapib, Ln(HbA1c)","[1]; genotype_group = GG, HBA1C_M06, Table 12, adjustment not stated",−0.0145
same,"β dalcetrapib, Ln(HbA1c)","[1]; genotype_group = GG, HBA1C_M06, first block, adjusted for baseline HbA1c",−0.0145
same,"β dalcetrapib, Ln(HbA1c)","[1]; genotype_group = GG, HBA1C_M12, Table 12, adjustment not stated",−0.0185
same,"β dalcetrapib, Ln(HbA1c)","[1]; genotype_group = GG, HBA1C_M12, first block, adjusted for baseline HbA1c",−0.0186
same,"β dalcetrapib, Ln(HbA1c)","[1]; genotype_group = GG, HBA1C_M24, Table 12, adjustment not stated",−0.0214
same,"β dalcetrapib, Ln(HbA1c)","[1]; genotype_group = GG, HBA1C_M24, first block, adjusted for baseline HbA1c",−0.0210
same,mean ln(HbA1c) in the dalcetrapib treatment arm,"[1]; versus placebo arm, adjusting for baseline HbA1c",lower than in the placebo arm
same,association of treatment arm (dalcetrapib versus placebo) with whole-blood HbA1c at M06,"[2]; HbA1c >7 at baseline, genotype rs1967309/AA, without adjustment for covariates, significance level 5%",associated with a decrease in whole-blood HbA1c
same,"repeated measures analysis, natural logarithm of HbA1C at 6, 12 and 24 months","[2]; uncontrolled diabetic patients, mixed regression models",confirmed by repeated measures analysis
same,mean ln(HbA1c) in the dalcetrapib treatment arm,"[2]; uncontrolled diabetics, versus placebo arm",lower than in the placebo arm
same,dalcetrapib treatment arm as predictor of HbA1c,[3],significant predictor of reduced HbA1c
